Data on ten compounds can be found in PubChem BioAssay (NCI).

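Dose response: 5 concentrations. Exposure: 48 h. Format: 96-well plates. Endpoint: linear interpolation; highest concentration if not reached. The concentration for full growth arrest is given as TGI.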 Bounds are passed on as bounds.

Some test systems named below: COLO 205 colon; HCT-15 colon; HOP-62 NSCLC; HT29 colon; MOLT-4 leukemia; OVCAR-3 ovarian; OVCAR-8 ovarian; RXF 393 renal; SNB-19 CNS; T-47D breast; TK-10 renal; UACC-257 melanoma.
Assay in all cases: growth of human tumour cells (NCI), 48 h

Turning to `CCCCCCCC/C=C\CCCCCCCCNc1ccn(C2OC(COP(=O)(O)OC3CC(n4cc(F)c(=O)[nH]c4=O)OC3CO)C(O)C2O)c(=O)n1` (stereo not given), the TGI in the assay with COLO 205 colon was above 100 µM; in the assay on HCT-15 colon, above 100 µM; in the assay on HOP-62 NSCLC it was above 100 µM; in the assay on HT29 colon, above 61.8 µM; in the assay on MOLT-4 leukemia, 20.5 µM; in the assay on OVCAR-3 ovarian, above 100 µM. The TGI in the assay on OVCAR-8 ovarian, in the assay on RXF 393 renal, in the assay on SNB-19 CNS, in the assay with T-47D breast, with TK-10 renal and in the assay with UACC-257 melanoma was above 100 µM throughout.
As for `NCC(=O)C(O)C(O)C(O)CO` (stereo not given), the TGI in the assay on COLO 205 colon, in the assay on HCT-15 colon, with HOP-62 NSCLC, with HT29 colon, with MOLT-4 leukemia and in the assay on OVCAR-3 ovarian was above 100 µM in each case. For the same compound, the TGI with OVCAR-8 ovarian, with RXF 393 renal, with SNB-19 CNS, in the assay on T-47D breast, in the assay on TK-10 renal and in the assay on UACC-257 melanoma was above 100 µM throughout.
For `CCOC(=O)c1ccc2c(c1)nc1n2C(c2c(F)cccc2F)SC1` (stereo not given), the TGI in the assay on COLO 205 colon is 28.5 µM; in the assay on HCT-15 colon, above 100 µM; in the assay on HOP-62 NSCLC, above 100 µM; with HT29 colon it was 56.4 µM; in the assay on MOLT-4 leukemia it was above 100 µM; with OVCAR-3 ovarian, 43.4 µM. In addition, the TGI in the assay on OVCAR-8 ovarian was 58.7 µM; in the assay on RXF 393 renal, above 100 µM; with SNB-19 CNS, 83.5 µM; in the assay on T-47D breast, 49.9 µM; with TK-10 renal it was above 100 µM; with UACC-257 melanoma it was above 100 µM.
For the compound `CCOC(=O)CSc1nc(-c2ccc(OC)cc2)c(C#N)c(=O)[nH]1`, the TGI with COLO 205 colon, with HCT-15 colon, in the assay with HOP-62 NSCLC, in the assay with HT29 colon, with MOLT-4 leukemia and with OVCAR-3 ovarian was above 100 µM each time. Besides, the TGI with OVCAR-8 ovarian, in the assay on RXF 393 renal, in the assay on SNB-19 CNS, in the assay on T-47D breast, in the assay on TK-10 renal and with UACC-257 melanoma was above 100 µM in each case.
As to `CCOC(=O)Cn1c(=O)c2nc(SC)sc2n(-c2ccc(C)cc2)c1=S`, the TGI is above 100 µM in the assay on COLO 205 colon; above 100 µM with HCT-15 colon; 42.5 µM in the assay with HOP-62 NSCLC; above 100 µM in the assay with HT29 colon; above 100 µM in the assay with MOLT-4 leukemia; above 100 µM with OVCAR-3 ovarian. Besides, the TGI in the assay on OVCAR-8 ovarian was above 100 µM; in the assay on RXF 393 renal, 61.1 µM; in the assay on SNB-19 CNS it was 54.1 µM; with T-47D breast, above 100 µM; in the assay on TK-10 renal it was above 89.8 µM; in the assay with UACC-257 melanoma, above 100 µM.
`CC(C)(C)CN1[C@@H]2CCCC[C@H]2N(CC(C)(C)C)P1(=O)Cc1ccccc1`: the TGI in the assay with COLO 205 colon turned out to be 22.2 µM; with HCT-15 colon, 25 µM; with HOP-62 NSCLC it was 31.3 µM; in the assay with HT29 colon, 21.7 µM; in the assay on MOLT-4 leukemia, 27.5 µM; in the assay on OVCAR-3 ovarian, 23.5 µM. For the same compound, the TGI stood at 27.7 µM with OVCAR-8 ovarian; 24.1 µM with RXF 393 renal; 28.6 µM in the assay on SNB-19 CNS; 26.6 µM with T-47D breast; 25 µM in the assay on TK-10 renal; 25.6 µM in the assay on UACC-257 melanoma.
With `C[C@]12CC[C@@H]3c4ccc(OC(=O)c5ccccc5)cc4CC[C@H]3[C@@H]1CCC2OC(=O)c1cccc2c(=O)c3ccccc3[nH]c12` (stereo not given in full), the TGI in the assay with COLO 205 colon was 33.1 µM; in the assay on HCT-15 colon it was 29 µM; with HOP-62 NSCLC it was 50.2 µM; with HT29 colon it was 20.7 µM; with MOLT-4 leukemia, above 100 µM; in the assay on OVCAR-3 ovarian, above 100 µM. The TGI was 35.7 µM in the assay with OVCAR-8 ovarian; 44.6 µM in the assay with RXF 393 renal; 80.6 µM in the assay with SNB-19 CNS; 60.2 µM in the assay on T-47D breast; 39.1 µM with TK-10 renal; 36.3 µM in the assay on UACC-257 melanoma.
With `COC(=O)c1cc(Br)c(C(=O)C(Cl)(Cl)Cl)[nH]1`, the TGI in the assay with COLO 205 colon, in the assay with HCT-15 colon, in the assay with HOP-62 NSCLC, with HT29 colon, in the assay with MOLT-4 leukemia and with OVCAR-3 ovarian was above 100 µM each time. Moreover, the TGI in the assay on OVCAR-8 ovarian, in the assay on RXF 393 renal, in the assay with SNB-19 CNS, in the assay with T-47D breast, in the assay with TK-10 renal and in the assay on UACC-257 melanoma was above 100 µM throughout.
For the compound `CCOC(=O)c1sc2nc(SC)nc(Nc3ccc4c(c3)OCCCO4)c2c1N`, the TGI is above 100 µM in the assay with COLO 205 colon; above 100 µM with HCT-15 colon; 61.5 µM with HOP-62 NSCLC; above 100 µM in the assay with HT29 colon; 8.25 µM in the assay with MOLT-4 leukemia; 75.9 µM in the assay on OVCAR-3 ovarian. The TGI in the assay on OVCAR-8 ovarian was above 100 µM; in the assay with RXF 393 renal it was 41.7 µM; in the assay with SNB-19 CNS, above 100 µM; with T-47D breast, above 100 µM; in the assay with TK-10 renal, above 100 µM; in the assay on UACC-257 melanoma, above 100 µM.
On to `N#Cc1c(C#N)c(-c2cccc([N+](=O)[O-])c2)n(-c2ccccc2)c1N`, for which the TGI in the assay with COLO 205 colon, in the assay on HCT-15 colon, with HOP-62 NSCLC, in the assay with HT29 colon, with MOLT-4 leukemia and in the assay with OVCAR-3 ovarian was above 100 µM throughout. Besides, the TGI in the assay with OVCAR-8 ovarian, with RXF 393 renal, in the assay on SNB-19 CNS, in the assay with T-47D breast, in the assay on TK-10 renal and with UACC-257 melanoma was above 100 µM in each case.
